Test results from ChEMBL document CHEMBL2424579, “Quinazolin-4-one derivatives as selective histone deacetylase-6 inhibitors for the treatment of Alzheimer's disease” (J Med Chem, 2013).
Active and inactive are the calls of the source. No cut-off for these calls is given here.

Tests used:
SH-SY5Y [1] = experiment: Increase of synaptic activity in human SH-SY5Y cells after 5 days by fluorescence assay; type: functional, cell-based; conditions: 120 h
SH-SY5Y [2] = experiment: Induction of neurite outgrowth in human SH-SY5Y cells after 5 days; type: functional, cell-based; conditions: 120 h
PC-12 [3] = experiment: Increase of synaptic activity in rat PC12 cells after 5 days by fluorescence assay; type: functional, cell-based; conditions: PC-12, 120 h
SH-SY5Y [4] = experiment: Induction of neurite outgrowth in human SH-SY5Y cells at 10 uM after 5 days; type: functional, cell-based
PC-12 [5] = experiment: Induction of neurite outgrowth in rat PC12 cells after 5 days; type: functional, cell-based; conditions: PC-12, 120 h
PC-12 [6] = experiment: Induction of neurite outgrowth in rat PC12 cells at 10 uM after 5 days; type: functional, cell-based
Histone deacetylase 11 = target: T1, Histone deacetylase 11 (Homo sapiens, UniProt Q96DB2); experiment: Inhibition of human recombinant HDAC11 expressed in baculovirus/sf9 cells using RHKKAc as substrate
T1 sequence (Q96DB2 whole entry): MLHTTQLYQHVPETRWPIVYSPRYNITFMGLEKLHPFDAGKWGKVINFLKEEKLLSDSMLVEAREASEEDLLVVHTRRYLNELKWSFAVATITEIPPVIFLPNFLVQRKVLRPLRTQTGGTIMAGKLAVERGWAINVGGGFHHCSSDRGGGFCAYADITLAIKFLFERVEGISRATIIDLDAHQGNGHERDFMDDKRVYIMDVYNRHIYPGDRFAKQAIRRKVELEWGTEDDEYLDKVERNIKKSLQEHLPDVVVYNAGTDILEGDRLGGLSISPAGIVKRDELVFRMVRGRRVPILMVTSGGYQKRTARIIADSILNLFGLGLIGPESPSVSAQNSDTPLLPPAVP

[7] = target: T2, Protein deacetylase HDAC6 (Homo sapiens, UniProt Q9UBN7); experiment: Inhibition of human recombinant HDAC6 expressed in baculovirus/sf9 cells using RHKKAc as substrate
T2 sequence (Q9UBN7 whole entry): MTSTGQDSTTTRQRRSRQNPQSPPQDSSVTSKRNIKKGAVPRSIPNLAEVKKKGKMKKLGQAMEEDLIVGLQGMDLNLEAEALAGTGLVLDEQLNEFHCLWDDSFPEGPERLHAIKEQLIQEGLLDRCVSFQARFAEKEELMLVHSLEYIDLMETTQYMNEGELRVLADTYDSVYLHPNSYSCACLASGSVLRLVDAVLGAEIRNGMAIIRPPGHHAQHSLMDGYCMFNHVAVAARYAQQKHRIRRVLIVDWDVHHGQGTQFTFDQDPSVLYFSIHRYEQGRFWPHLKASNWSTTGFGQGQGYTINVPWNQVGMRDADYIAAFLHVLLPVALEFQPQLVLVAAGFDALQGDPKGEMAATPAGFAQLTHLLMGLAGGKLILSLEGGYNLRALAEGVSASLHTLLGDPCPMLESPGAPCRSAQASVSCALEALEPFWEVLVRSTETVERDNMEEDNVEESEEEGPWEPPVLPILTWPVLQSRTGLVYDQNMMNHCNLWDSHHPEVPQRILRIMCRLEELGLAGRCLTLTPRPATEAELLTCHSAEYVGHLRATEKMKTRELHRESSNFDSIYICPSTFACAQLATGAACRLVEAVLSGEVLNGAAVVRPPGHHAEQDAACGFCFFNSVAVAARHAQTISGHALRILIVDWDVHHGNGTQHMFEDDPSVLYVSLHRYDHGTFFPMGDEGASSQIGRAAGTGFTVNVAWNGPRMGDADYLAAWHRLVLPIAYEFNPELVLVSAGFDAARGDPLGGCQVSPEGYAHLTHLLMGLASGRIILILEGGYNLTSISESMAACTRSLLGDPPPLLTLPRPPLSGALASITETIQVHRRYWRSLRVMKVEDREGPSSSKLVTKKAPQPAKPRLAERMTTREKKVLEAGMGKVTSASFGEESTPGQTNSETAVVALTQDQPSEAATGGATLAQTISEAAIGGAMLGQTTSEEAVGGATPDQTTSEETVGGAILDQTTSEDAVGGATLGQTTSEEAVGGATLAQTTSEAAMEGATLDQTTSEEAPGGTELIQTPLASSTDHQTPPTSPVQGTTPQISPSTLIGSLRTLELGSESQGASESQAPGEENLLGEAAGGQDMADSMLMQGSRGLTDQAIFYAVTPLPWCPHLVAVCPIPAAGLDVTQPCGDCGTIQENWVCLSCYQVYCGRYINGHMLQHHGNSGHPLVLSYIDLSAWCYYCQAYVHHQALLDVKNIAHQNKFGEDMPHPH

Histone deacetylase 8 = target: T3, Histone deacetylase 8 (Homo sapiens, UniProt Q9BY41); experiment: Inhibition of human recombinant HDAC8 expressed in baculovirus/sf9 cells using RHKAcKAc as substrate
T3 sequence (Q9BY41 whole entry): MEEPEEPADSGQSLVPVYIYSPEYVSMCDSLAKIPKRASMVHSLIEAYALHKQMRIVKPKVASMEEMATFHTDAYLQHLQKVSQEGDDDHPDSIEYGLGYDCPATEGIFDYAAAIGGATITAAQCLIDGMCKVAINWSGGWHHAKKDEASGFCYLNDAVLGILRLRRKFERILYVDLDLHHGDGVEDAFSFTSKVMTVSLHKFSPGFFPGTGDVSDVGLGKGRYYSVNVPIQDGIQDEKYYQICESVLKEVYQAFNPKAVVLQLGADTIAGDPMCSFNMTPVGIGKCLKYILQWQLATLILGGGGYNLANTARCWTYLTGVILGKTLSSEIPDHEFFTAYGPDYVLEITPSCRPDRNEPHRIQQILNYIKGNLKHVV

Histone deacetylase 1 = Histone deacetylase 1 (Homo sapiens, UniProt Q13547); experiment: Inhibition of human recombinant HDAC1 expressed in baculovirus/sf9 cells using RHKKAc as substrate
Sequence of Histone deacetylase 1 (Q13547 whole entry): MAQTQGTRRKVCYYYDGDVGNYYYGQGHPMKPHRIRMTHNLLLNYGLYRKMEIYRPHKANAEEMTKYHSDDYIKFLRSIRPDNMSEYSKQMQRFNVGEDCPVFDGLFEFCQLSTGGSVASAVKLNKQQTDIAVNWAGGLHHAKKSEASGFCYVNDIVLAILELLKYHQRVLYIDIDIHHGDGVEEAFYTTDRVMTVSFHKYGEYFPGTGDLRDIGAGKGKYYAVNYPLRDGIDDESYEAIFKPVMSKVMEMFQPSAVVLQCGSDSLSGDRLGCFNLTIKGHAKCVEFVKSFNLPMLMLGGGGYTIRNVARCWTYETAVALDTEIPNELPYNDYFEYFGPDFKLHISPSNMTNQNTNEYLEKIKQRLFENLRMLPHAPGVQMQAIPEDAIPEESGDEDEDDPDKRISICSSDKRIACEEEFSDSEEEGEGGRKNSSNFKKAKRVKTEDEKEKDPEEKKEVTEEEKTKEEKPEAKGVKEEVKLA

Histone deacetylase 2 = Histone deacetylase 2 (Homo sapiens, UniProt Q92769); experiment: Inhibition of human recombinant HDAC2 expressed in baculovirus/sf9 cells using RHKKAc as substrate
Sequence of Histone deacetylase 2 (Q92769 whole entry): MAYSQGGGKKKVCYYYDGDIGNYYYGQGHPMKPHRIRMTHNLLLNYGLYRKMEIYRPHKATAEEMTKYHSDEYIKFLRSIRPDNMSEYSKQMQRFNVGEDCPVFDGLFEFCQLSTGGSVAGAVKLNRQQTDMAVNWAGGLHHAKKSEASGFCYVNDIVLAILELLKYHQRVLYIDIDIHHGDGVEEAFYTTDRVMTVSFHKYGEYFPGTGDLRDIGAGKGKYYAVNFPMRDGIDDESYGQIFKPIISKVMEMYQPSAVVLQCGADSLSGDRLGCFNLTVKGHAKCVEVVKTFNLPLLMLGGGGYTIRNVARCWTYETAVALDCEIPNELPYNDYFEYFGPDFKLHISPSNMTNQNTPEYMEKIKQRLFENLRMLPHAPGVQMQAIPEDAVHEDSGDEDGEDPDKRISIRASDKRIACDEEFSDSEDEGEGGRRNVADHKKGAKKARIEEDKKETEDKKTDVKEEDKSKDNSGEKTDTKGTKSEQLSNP

Vero = experiment: Cytotoxicity against african green monkey Vero cells at 25 uM; type: cell-based; conditions: chlorocebus sabaeus
[8] = Cytotoxicity against human SH-SY5Y cells at 25 uM; type: cell-based
PC-12 [9] = experiment: Cytotoxicity against rat PC12 cells at 25 uM; type: cell-based; conditions: pc-12, 25 µM
Homo sapiens [10] = species: Homo sapiens; experiment: Selectivity index, ratio of IC50 for human recombinant HDAC1 to IC50 for human recombinant HDAC6
Homo sapiens [11] = species: Homo sapiens; experiment: Selectivity index, ratio of IC50 for human recombinant HDAC8 to IC50 for human recombinant HDAC6
[12] = target: T4, Amyloid-beta precursor protein (Homo sapiens, UniProt P05067); experiment: Inhibition of amyloid beta aggregation (unknown origin) after 4 hrs by thioflavin S assay in absence of Zn2+
T4 sequence (P05067 whole entry): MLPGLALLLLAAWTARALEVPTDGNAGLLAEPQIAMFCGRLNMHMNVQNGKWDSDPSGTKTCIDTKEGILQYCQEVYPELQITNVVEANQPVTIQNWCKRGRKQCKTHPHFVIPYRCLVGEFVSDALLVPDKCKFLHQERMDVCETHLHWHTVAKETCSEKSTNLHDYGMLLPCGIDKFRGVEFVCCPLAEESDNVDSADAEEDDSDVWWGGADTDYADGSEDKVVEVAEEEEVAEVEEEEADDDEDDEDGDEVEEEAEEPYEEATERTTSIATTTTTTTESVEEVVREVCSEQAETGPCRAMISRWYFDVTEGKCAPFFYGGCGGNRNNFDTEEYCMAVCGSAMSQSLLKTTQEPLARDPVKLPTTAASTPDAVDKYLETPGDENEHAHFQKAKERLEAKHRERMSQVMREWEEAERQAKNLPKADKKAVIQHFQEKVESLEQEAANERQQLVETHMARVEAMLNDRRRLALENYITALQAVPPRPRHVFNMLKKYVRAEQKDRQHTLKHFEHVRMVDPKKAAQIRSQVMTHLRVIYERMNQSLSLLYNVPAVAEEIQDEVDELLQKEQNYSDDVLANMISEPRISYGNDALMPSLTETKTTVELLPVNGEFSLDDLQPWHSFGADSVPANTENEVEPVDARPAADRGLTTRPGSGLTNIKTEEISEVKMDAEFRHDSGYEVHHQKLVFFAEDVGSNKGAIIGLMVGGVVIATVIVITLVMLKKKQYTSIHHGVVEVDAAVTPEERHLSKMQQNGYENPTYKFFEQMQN

[13] = target: T4, Amyloid-beta precursor protein; experiment: Inhibition of amyloid beta aggregation (unknown origin) after 4 hrs by thioflavin S assay in presence of Zn2+
PC-12 [14] = experiment: Induction iof GAP-43 protein expression in rat PC12 cells after 48 hrs by Western blotting analysis; type: functional, cell-based
[15] = target: Poly [ADP-ribose] polymerase 1 (Homo sapiens) (UniProt P09874); experiment: Inhibition of PARP1 (unknown origin) up to 25 uM
Sequence of Poly [ADP-ribose] polymerase 1 (Homo sapiens) (P09874 whole entry): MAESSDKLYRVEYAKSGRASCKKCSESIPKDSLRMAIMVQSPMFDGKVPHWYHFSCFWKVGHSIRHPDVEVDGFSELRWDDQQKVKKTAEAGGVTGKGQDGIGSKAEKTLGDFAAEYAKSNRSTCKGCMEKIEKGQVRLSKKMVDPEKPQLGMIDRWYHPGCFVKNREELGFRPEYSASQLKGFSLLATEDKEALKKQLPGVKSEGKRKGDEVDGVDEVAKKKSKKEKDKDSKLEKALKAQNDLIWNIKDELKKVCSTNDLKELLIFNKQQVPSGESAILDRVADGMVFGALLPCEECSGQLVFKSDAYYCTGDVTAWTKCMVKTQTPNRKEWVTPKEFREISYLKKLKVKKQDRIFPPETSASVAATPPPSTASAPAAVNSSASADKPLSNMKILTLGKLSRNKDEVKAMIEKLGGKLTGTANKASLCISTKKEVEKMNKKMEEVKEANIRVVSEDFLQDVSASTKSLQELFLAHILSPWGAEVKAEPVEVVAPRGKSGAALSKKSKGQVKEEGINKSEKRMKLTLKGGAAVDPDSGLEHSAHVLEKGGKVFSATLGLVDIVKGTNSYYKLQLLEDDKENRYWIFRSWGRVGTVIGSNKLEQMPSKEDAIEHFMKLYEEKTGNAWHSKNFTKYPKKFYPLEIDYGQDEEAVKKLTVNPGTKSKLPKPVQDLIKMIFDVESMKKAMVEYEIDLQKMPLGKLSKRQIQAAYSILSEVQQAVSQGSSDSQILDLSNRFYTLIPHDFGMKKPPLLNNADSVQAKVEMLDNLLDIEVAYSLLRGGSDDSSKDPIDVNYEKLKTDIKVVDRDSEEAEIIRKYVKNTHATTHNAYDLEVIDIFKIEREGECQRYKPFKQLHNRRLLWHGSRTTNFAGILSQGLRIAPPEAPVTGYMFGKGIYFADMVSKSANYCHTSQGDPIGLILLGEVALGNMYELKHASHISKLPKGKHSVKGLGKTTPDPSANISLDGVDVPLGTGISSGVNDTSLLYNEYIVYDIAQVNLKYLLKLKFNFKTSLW

| Compound | EC50 (SH-SY5Y [1]) [µM] | EC50 (SH-SY5Y [2]) [µM] | EC50 (PC-12 [3]) [µM] | Activity (SH-SY5Y [4]) | EC50 (PC-12 [5]) [µM] | Activity (PC-12 [6]) | IC50 (Histone deacetylase 11) [µM] | IC50 [7] [µM] | IC50 (Histone deacetylase 8) [µM] | IC50 (Histone deacetylase 1) [µM] | IC50 (Histone deacetylase 2) [µM] | Activity (Vero) | Activity [8] | Activity (PC-12 [9]) | Ratio IC50 (Homo sapiens [10]) | Ratio IC50 (Homo sapiens [11]) | IC50 [12] [µM] | IC50 [13] [µM] | Activity (PC-12 [14]) | inhibition [15] |
| --- | --- | --- | --- | --- | --- | --- | --- | --- | --- | --- | --- | --- | --- | --- | --- | --- | --- | --- | --- | --- |
| CCc1nc2cc(/C=C/C(=O)NO)ccc2c(=O)n1CCc1ccc(F)cc1 | 22.2 | > 25 | 13.9 | Active | 18.4 | Active | 4.25 | 0.043 | 0.891 | 2.11 | 6.88 | Non-toxic | Non-toxic | Non-toxic | – | – | – | – | – | – |
| CC(C)c1nc2cc(/C=C/C(=O)NO)ccc2c(=O)n1CCc1ccccc1 | 6.7 | 15 | 5.3 | Active | 11.5 | Active | – | 0.013 | – | 0.389 | – | Non-toxic | Non-toxic | Non-toxic | – | – | – | – | – | – |
| CCc1nc2cc(/C=C/C(=O)NO)c(F)cc2c(=O)n1CCc1ccccc1 | – | – | – | – | – | – | 3.74 | 0.014 | 1.4 | 3 | > 10 | Non-toxic | Non-toxic | Non-toxic | 214 | 100 | – | – | – | – |
| CCc1nc2cc(Cl)c(/C=C/C(=O)NO)cc2c(=O)n1CCc1ccccc1 | – | – | – | – | – | – | > 30 | 0.747 | 1.88 | > 10 | > 12 | Non-toxic | Non-toxic | Non-toxic | > 13 | 3 | – | – | – | – |
| O=C(O)CN(CCN(CC(=O)O)CC(=O)O)CC(=O)O [EDETIC ACID] | – | – | – | – | – | – | – | – | – | – | – | – | – | – | – | – | 28.4 | 7.7 | – | – |
| Cc1nc2cc(/C=C/C(=O)NO)ccc2c(=O)n1CCc1c[nH]c2ccccc12 | – | – | – | – | – | – | 1.21 | 0.015 | 1.59 | 0.758 | 2.21 | Non-toxic | Non-toxic | Non-toxic | 51 | 106 | > 50 | – | – | – |
| Cc1nc2cc(/C=C/C(=O)NO)ccc2c(=O)n1Cc1ccccc1 | 8.2 | > 25 | 8.2 | Active | 20.9 | Active | 2.44 | 0.024 | 1.27 | 1.45 | 4 | Non-toxic | Non-toxic | Non-toxic | – | – | > 50 | – | – | – |
| CCc1nc2cc(/C=C/C(=O)NO)ccc2c(=O)n1CCc1ccc(OC)cc1 | 20.6 | > 25 | 20.6 | – | 7.2 | – | 3.91 | 0.041 | 0.594 | 1.81 | 4.78 | Non-toxic | Non-toxic | Non-toxic | – | – | – | – | – | – |
| O=C(/C=C/c1ccc2c(=O)n(CCc3ccccc3)c(C3CC3)nc2c1)NO | > 25 | > 25 | – | Active | 10.5 | Active | – | 0.041 | – | 0.433 | – | Non-toxic | Non-toxic | Non-toxic | – | – | – | – | – | – |
| CCc1nc2cc(/C=C/C(=O)NO)ccc2c(=O)n1CCc1ccccc1 | 0.9 | 11 | 7.2 | Active | 5.3 | Active | 2.95 | 0.011 | 1.18 | 1.19 | 4.81 | Non-toxic | Non-toxic | Non-toxic | – | – | > 50 | – | Dose-dependent effect | inactive |
| CCc1nc2cc(/C=C/C(=O)NO)ccc2c(=O)n1CCCc1ccccc1 | 10 | 11.7 | 7 | Active | 6.6 | Active | 5.59 | 0.033 | 1.33 | 3.2 | > 12 | Non-toxic | Non-toxic | Non-toxic | – | – | – | – | Dose-dependent effect | inactive |
| O=C(/C=C/c1ccc2c(=O)n(CCc3ccccc3)cnc2c1)NO | 4.9 | 15 | 14.5 | Active | > 25 | Active | 0.73 | 0.035 | 0.6 | 0.495 | 1.22 | Non-toxic | Non-toxic | Non-toxic | – | – | > 50 | – | – | – |
| O=C(O)c1cccnc1 [NIACIN] | – | – | – | – | – | – | – | – | – | – | – | – | – | – | – | – | 13.1 | 43.7 | – | – |
| CCc1nc2ccc(Cc3ccc(C(=O)NO)cc3)cc2c(=O)n1CCc1ccccc1 | 4.1 | 18.4 | 2.9 | Active | 9.4 | Active | 0.656 | 0.011 | 0.099 | 1.05 | 3.61 | Non-toxic | Non-toxic | Non-toxic | – | – | – | – | – | – |
